Assay results as given in ChEMBL document CHEMBL1201862, “PubChem BioAssay data set” (2004).
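1) Cells in 96-well plates. 2) Compound, 48 h, 5 concentrations. 3) Linear interpolation between surrounding doses. 4) Unreached endpoint = highest concentration. At the GI50, growth is halved.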 Calls of active or inactive are those of the source. No stated cut-off is given here; in the data, active = GI50 up to about 1.1 µM and inactive = higher.

Columns and labels:
Experiment in all cases: inhibition of tumour cell growth, NCI panel, 48 h
ACHN = test system: ACHN
BT-549 = test system: BT-549
CCRF-CEM = test system: CCRF-CEM
COLO 205 = test system: COLO 205
EKVX = test system: EKVX
HL-60 = test system: HL-60
IGROV-1 = test system: IGROV-1
M14 = test system: M14
MDA-MB-435 = test system: MDA-MB-435
NCI-H226 = test system: NCI-H226
NCI-H522 = test system: NCI-H522
OVCAR-5 = test system: OVCAR-5
SF-268 = test system: SF-268
SK-MEL-28 = test system: SK-MEL-28
SK-MEL-5 = test system: SK-MEL-5
SN12C = test system: SN12C
SNB-75 = test system: SNB-75
SW-620 = test system: SW-620
TK-10 = test system: TK-10
UACC-257 = test system: UACC-257

Question: With `O=C(O)c1c(-c2nccc3ccccc23)[nH]c(-c2ccccc2)c1S(=O)(=O)O` as the compound, how does the GI50 (ACHN) read?
Answer: > 100 µM (inactive)

Question: What about the GI50 (BT-549) of the same compound?
Answer: > 100 µM (inactive)

Question: And the GI50 (CCRF-CEM)?
Answer: > 100 µM (inactive)

Question: What about the GI50 (COLO 205) of the same compound?
Answer: > 100 µM (inactive)

Question: What about the GI50 (EKVX) of the same compound?
Answer: 21.8 µM (inactive)

Question: And the GI50 (HL-60)?
Answer: 41.8 µM (inactive)

Question: And the GI50 (IGROV-1)?
Answer: > 100 µM (inactive)

Question: What about the GI50 (M14) of the same compound?
Answer: > 100 µM (inactive)

Question: What about the GI50 (MDA-MB-435) of the same compound?
Answer: > 100 µM (inactive)

Question: And the GI50 (NCI-H226)?
Answer: > 100 µM (inactive)

Question: And the GI50 (NCI-H522)?
Answer: > 100 µM (inactive)

Question: What about the GI50 (OVCAR-5) of the same compound?
Answer: > 100 µM (inactive)

Question: What about the GI50 (SF-268) of the same compound?
Answer: > 100 µM (inactive)

Question: What about the GI50 (SK-MEL-28) of the same compound?
Answer: > 100 µM (inactive)

Question: What about the GI50 (SK-MEL-5) of the same compound?
Answer: > 100 µM (inactive)

Question: What about the GI50 (SN12C) of the same compound?
Answer: > 100 µM (inactive)

Question: What about the GI50 (SNB-75) of the same compound?
Answer: > 100 µM (inactive)

Question: And the GI50 (SW-620)?
Answer: > 100 µM (inactive)

Question: What about the GI50 (TK-10) of the same compound?
Answer: > 100 µM (inactive)

Question: And the GI50 (UACC-257)?
Answer: > 100 µM (inactive)

Question: With `CC(C)(C)OC(=O)CN1CCNCCNCC1` as the compound, how does the GI50 (ACHN) read?
Answer: > 100 µM (inactive)

Question: What about the GI50 (BT-549) of the same compound?
Answer: > 100 µM (inactive)

Question: What about the GI50 (CCRF-CEM) of the same compound?
Answer: > 100 µM (inactive)

Question: And the GI50 (COLO 205)?
Answer: > 100 µM (inactive)

Question: What about the GI50 (EKVX) of the same compound?
Answer: > 100 µM (inactive)

Question: What about the GI50 (HL-60) of the same compound?
Answer: 9.55 µM (inactive)

Question: And the GI50 (IGROV-1)?
Answer: > 100 µM (inactive)

Question: And the GI50 (M14)?
Answer: > 100 µM (inactive)

Question: And the GI50 (MDA-MB-435)?
Answer: > 100 µM (inactive)

Question: And the GI50 (NCI-H226)?
Answer: > 100 µM (inactive)

Question: And the GI50 (NCI-H522)?
Answer: > 100 µM (inactive)

Question: And the GI50 (OVCAR-5)?
Answer: > 100 µM (inactive)

Question: What about the GI50 (SF-268) of the same compound?
Answer: > 100 µM (inactive)

Question: And the GI50 (SK-MEL-28)?
Answer: > 100 µM (inactive)

Question: And the GI50 (SK-MEL-5)?
Answer: > 100 µM (inactive)

Question: And the GI50 (SN12C)?
Answer: > 100 µM (inactive)

Question: What about the GI50 (SNB-75) of the same compound?
Answer: > 100 µM (inactive)

Question: What about the GI50 (SW-620) of the same compound?
Answer: > 100 µM (inactive)

Question: What about the GI50 (TK-10) of the same compound?
Answer: > 100 µM (inactive)

Question: And the GI50 (UACC-257)?
Answer: > 100 µM (inactive)

Question: Which results are given for `CCOC(=O)CCC(NC(=O)c1ccc(OCc2ccc3nc(-c4ccccc4)c(Cl)nc3c2)cc1)C(=O)OCC` (stereo not given)?
Answer: GI50 (ACHN): 26.9 µM (inactive); GI50 (BT-549): 22.3 µM (inactive); GI50 (CCRF-CEM): > 31.6 µM (inactive); GI50 (COLO 205): > 100 µM (inactive); GI50 (EKVX): 19.9 µM (inactive); GI50 (HL-60): 7.29 µM (inactive); GI50 (IGROV-1): 22.1 µM (inactive); GI50 (M14): > 31.6 µM (inactive); GI50 (MDA-MB-435): > 31.6 µM (inactive); GI50 (NCI-H226): 19.2 µM (inactive); GI50 (NCI-H522): 17.4 µM (inactive); GI50 (OVCAR-5): > 31.6 µM (inactive); GI50 (SF-268): 15 µM (inactive); GI50 (SK-MEL-28): > 31.6 µM (inactive); GI50 (SK-MEL-5): > 31.6 µM (inactive); GI50 (SN12C): > 100 µM (inactive); GI50 (SNB-75): 16.8 µM (inactive); GI50 (SW-620): > 31.6 µM (inactive); GI50 (TK-10): 16.4 µM (inactive); GI50 (UACC-257): > 31.6 µM (inactive)

Question: How did the GI50 (ACHN) turn out when `CSc1cnc2ccccc2c1SC1CN(Cc2ccccc2)c2ccccc2C1=O` (stereo not given) was run?
Answer: > 100 µM (inactive)

Question: What about the GI50 (BT-549) of the same compound?
Answer: > 100 µM (inactive)

Question: And the GI50 (CCRF-CEM)?
Answer: > 100 µM (inactive)

Question: What about the GI50 (COLO 205) of the same compound?
Answer: > 100 µM (inactive)

Question: What about the GI50 (EKVX) of the same compound?
Answer: > 100 µM (inactive)

Question: What about the GI50 (HL-60) of the same compound?
Answer: 35 µM (inactive)

Question: And the GI50 (IGROV-1)?
Answer: > 100 µM (inactive)

Question: And the GI50 (M14)?
Answer: > 100 µM (inactive)

Question: What about the GI50 (MDA-MB-435) of the same compound?
Answer: > 100 µM (inactive)

Question: And the GI50 (NCI-H226)?
Answer: > 100 µM (inactive)

Question: And the GI50 (NCI-H522)?
Answer: > 100 µM (inactive)

Question: What about the GI50 (OVCAR-5) of the same compound?
Answer: > 100 µM (inactive)

Question: And the GI50 (SF-268)?
Answer: 54.8 µM (inactive)

Question: What about the GI50 (SK-MEL-28) of the same compound?
Answer: > 100 µM (inactive)

Question: And the GI50 (SK-MEL-5)?
Answer: > 100 µM (inactive)

Question: And the GI50 (SN12C)?
Answer: > 100 µM (inactive)

Question: And the GI50 (SNB-75)?
Answer: 83.4 µM (inactive)

Question: And the GI50 (SW-620)?
Answer: > 100 µM (inactive)

Question: And the GI50 (TK-10)?
Answer: > 100 µM (inactive)

Question: What about the GI50 (UACC-257) of the same compound?
Answer: > 100 µM (inactive)

Question: With `COC(=O)C1(Cc2ccc3c(c2)CCC3)Cc2cc3c(cc2C1)CCC3` as the compound, how does the GI50 (ACHN) read?
Answer: 38.3 µM (inactive)

Question: And the GI50 (BT-549)?
Answer: 42.7 µM (inactive)

Question: What about the GI50 (CCRF-CEM) of the same compound?
Answer: 19.3 µM (inactive)

Question: And the GI50 (COLO 205)?
Answer: 38.5 µM (inactive)

Question: And the GI50 (EKVX)?
Answer: 45.2 µM (inactive)

Question: And the GI50 (HL-60)?
Answer: 36.9 µM (inactive)

Question: And the GI50 (IGROV-1)?
Answer: 80 µM (inactive)

Question: What about the GI50 (M14) of the same compound?
Answer: 35.2 µM (inactive)

Question: What about the GI50 (MDA-MB-435) of the same compound?
Answer: 39 µM (inactive)

Question: And the GI50 (NCI-H226)?
Answer: 33.7 µM (inactive)

Question: And the GI50 (NCI-H522)?
Answer: 22.1 µM (inactive)

Question: And the GI50 (OVCAR-5)?
Answer: 55.6 µM (inactive)

Question: What about the GI50 (SF-268) of the same compound?
Answer: 30.3 µM (inactive)

Question: What about the GI50 (SK-MEL-28) of the same compound?
Answer: 60.1 µM (inactive)

Question: What about the GI50 (SK-MEL-5) of the same compound?
Answer: 27 µM (inactive)

Question: And the GI50 (SN12C)?
Answer: 50.5 µM (inactive)

Question: What about the GI50 (SNB-75) of the same compound?
Answer: 46.6 µM (inactive)

Question: What about the GI50 (SW-620) of the same compound?
Answer: 75.7 µM (inactive)

Question: And the GI50 (TK-10)?
Answer: > 100 µM (inactive)

Question: What about the GI50 (UACC-257) of the same compound?
Answer: 19.5 µM (inactive)

Question: Which results are given for `O=C1Nc2nccnc2C(=O)N2CCC[C@@H]12`?
Answer: GI50 (ACHN): > 100 µM (inactive); GI50 (BT-549): > 100 µM (inactive); GI50 (CCRF-CEM): > 100 µM (inactive); GI50 (COLO 205): > 100 µM (inactive); GI50 (EKVX): > 100 µM (inactive); GI50 (HL-60): > 100 µM (inactive); GI50 (IGROV-1): > 100 µM (inactive); GI50 (M14): > 100 µM (inactive); GI50 (MDA-MB-435): > 100 µM (inactive); GI50 (NCI-H226): > 100 µM (inactive); GI50 (NCI-H522): > 100 µM (inactive); GI50 (OVCAR-5): > 100 µM (inactive); GI50 (SF-268): > 100 µM (inactive); GI50 (SK-MEL-28): > 100 µM (inactive); GI50 (SK-MEL-5): > 100 µM (inactive); GI50 (SN12C): > 100 µM (inactive); GI50 (SNB-75): > 100 µM (inactive); GI50 (SW-620): > 100 µM (inactive); GI50 (TK-10): > 100 µM (inactive); GI50 (UACC-257): > 100 µM (inactive)

Question: Which results are given for `N#C/C(=C1C=C(Br)/C(=N\O)C=C\1Cl)c1cccc2ccccc12`?
Answer: GI50 (ACHN): 11 µM (inactive); GI50 (BT-549): 7.43 µM (inactive); GI50 (CCRF-CEM): 2.62 µM (inactive); GI50 (COLO 205): 2.29 µM (inactive); GI50 (EKVX): 10.8 µM (inactive); GI50 (HL-60): 2.3 µM (inactive); GI50 (IGROV-1): 6.24 µM (inactive); GI50 (M14): 2.77 µM (inactive); GI50 (MDA-MB-435): 2.62 µM (inactive); GI50 (NCI-H226): 2.17 µM (inactive); GI50 (NCI-H522): 2.52 µM (inactive); GI50 (OVCAR-5): 3.55 µM (inactive); GI50 (SF-268): 4.47 µM (inactive); GI50 (SK-MEL-28): 6.3 µM (inactive); GI50 (SK-MEL-5): 3.42 µM (inactive); GI50 (SN12C): 8.49 µM (inactive); GI50 (SNB-75): 0.121 µM (active); GI50 (SW-620): 3.53 µM (inactive); GI50 (TK-10): 11.5 µM (inactive); GI50 (UACC-257): 6.62 µM (inactive)
